# Where two headings read alike, the source gives them in different places. Residues, ends and D or L forms follow the SMILES beside them.
# Legend:
# MRSA [1] = assay: Survival of MRSA-infected pyemia pigs; assay type: in vivo, pig
# Procedure: Administration of bacteria or mock treatment followed by flushing with 5 mL of sterile isotonic saline was performed by i.v. through a 22G catheter inserted in the right femoral vein. The catheter was removed after administration. Another 22G catheter was then inserted into the left femoral vein and secured with stitches. The catheter was flushed with 10 mL sterile isotonic saline solution, and then with 2 mL of 100 I.U./mL sterile heparin solution (catalogue number H3149, Sigma Chemical Co., St. Louis, MO, USA) for blood sampling. During blood sampling, the initial 5 mL of blood was discarded to avoid the heparin carryover. Five pigs were inoculated with the MRSA strain (1 × 10^9 CFU/kg) only. […] Samples were subsequently collected for histopathology, microbial studies, and bacterial count.
# MRSA [2] = assay type: cell-based, Staphylococcus aureus; settings: for pathogens killed (time-kill): 4 h
# Procedure: At 4, 8, 12, and 24 h post-treatment, the number of viable bacteria (CFU) was determined for the time-kill experiment.
# MRSA [3] = assay: Histopathology (H&E) of major organs of infected pigs; assay type: in vivo, pig; settings: vancomycin 0.5 mg/kg, day 7
# Procedure: Tissue samples from the heart valve, left diaphragmatic lobe of the lung, left lateral lobe of the liver, and left kidney were collected and fixed in PBS buffer containing 4% formaldehyde for 24 h. Fixed samples were immersed in different concentrations of xylene and ethanol before embedding in paraffin. The processed samples were sectioned at 8–10 µm using a microtome. The sections were stained for histological analysis with hematoxylin and eosin (H&E) after rehydration.
# [4] = pigs
# Procedure: (§1) Approximately 3 mL of blood was taken from the carotid artery at 0, 10, 20, 30, and 60 minutes and at 60 minutes intervals thereafter until 600 minutes had passed.
# [5] = 25% human serum in RPMI, 37 °C, LC-MS/MS
# Procedure: Human serum (catalogue number BP2657100, Fisher Scientific, Millersburg, PA, USA) was suspended in RPMI medium up to 25%, and 0.990 mL was transferred to a 1.5 mL micro centrifuge tube. The serum-containing tube was incubated at 37 °C for 15 min, and 10 mg/mL Epi-1 was added to obtain a final peptide concentration of 100 μg/mL. At constant time intervals 100 μL of the experimental mix was taken out, and serum protein was precipitated in two volumes of 95% ethanol solution. The cloudy precipitate was cooled at 4 °C for 15 min, and then the serum was precipitated and pelleted by centrifugation at 18,000 × g for 2 min. The peptide stability in the supernatant was then analyzed by a liquid chromatography tandem mass spectrometer (LC-MS/MS) (Mission Biotech, Taipei, Taiwan).
# [6] = Acute intravenous toxicity in pigs; assay type: in vivo, pig
# Procedure: Acute intravenous (i.v.) toxicity was analyzed as described previously. Acute i.v. toxicity was assessed after administration of 25, 50, 100, and 200 mg/kg body weight of Epi-1 in pigs; 1 to 5 animals per group. After injection, the animals were kept under visual observation up to 1 h, and the rate of mortality and clinical symptoms were recorded every 2 h for a total of 24 h. For blood analysis, 5 mL of heparin-stabilized blood was taken and stored at 4 °C. Serum was separated from the blood sample using a serum separator gel tube (catalogue number 367955, Becton-Dickinson, Franklin Park, NJ, USA), according to the vendor’s instructions. Serum GOT, GPT, UA, BUN, and CRT activity levels were determined using an automated analyzer (FUJI DRI-CHEM 4000i, Fujifilm, Tokyo, Japan) according to the manufacturers’ instructions. Standard controls were analyzed before each determination.
# in vivo = settings: pig, iv
# Procedure: as §1
# [7] = pig, Epi-1 200 mg/kg single i.v., n=1, died in one hour after injection
compound,measurement,setting,value
CN[C@H](CC(C)C)C(=O)N[C@H]1C(=O)N[C@@H](CC(N)=O)C(=O)N[C@H]2C(=O)N[C@H]3C(=O)N[C@H](C(=O)N[C@H](C(=O)O)c4cc(O)cc(O)c4-c4cc3ccc4O)[C@H](O)c3ccc(c(Cl)c3)Oc3cc2cc(c3O[C@@H]2O[C@H](CO)[C@@H](O)[C@H](O)[C@H]2O[C@H]2C[C@](C)(N)[C@H](O)[C@H](C)O2)Oc2ccc(cc2Cl)[C@H]1O [vancomycin],survival against MRSA infection,"MRSA [1]; MRSA 1 × 10^9 CFU/kg i.v., vancomycin 0.5 mg/kg i.v. 30 min post-infection, 7 days",80%
same,Survival Rate (Day PI),"MRSA [1]; MRSA 10^9 CFU/kg i.v., vancomycin 0.5 mg/kg, n=5",80
same,killing of MRSA,"MRSA [2]; at 24 h, about 1 × 10^6 cells, Figure 1B",95%
same,Heart: infective endocarditis (animals with clinical signs/total examined),MRSA [3],0/5
same,"Kidney: cystic tubules, cortical (animals with clinical signs/total examined)",MRSA [3],0/5
same,Liver: liver abscess (animals with clinical signs/total examined),MRSA [3],1/5
same,"Lung: inflammation, pulmonary edema (animals with clinical signs/total examined)",MRSA [3],2/5
same,course of the serum concentration of vancomycin,"[4]; vancomycin 0.5 mg/kg i.v., up to 360 min, LC-MS-MS, Supplementary Figure S1",very stable
"CC[C@H](C)[C@H](NC(=O)[C@H](CCSC)NC(=O)[C@H](CCCCN)NC(=O)CNC(=O)[C@H](C)NC(=O)[C@H](Cc1c[nH]cn1)NC(=O)[C@H](Cc1ccccc1)NC(=O)[C@H](CC(C)C)NC(=O)CNC(=O)[C@H](CCCCN)NC(=O)[C@@H](NC(=O)[C@@H](NC(=O)[C@H](Cc1c[nH]cn1)NC(=O)[C@H](Cc1ccccc1)NC(=O)[C@@H](NC(=O)[C@H](Cc1ccccc1)NC(=O)CN)[C@@H](C)CC)[C@@H](C)CC)[C@@H](C)CC)C(=O)N[C@@H](Cc1c[nH]cn1)C(=O)NCC(=O)N[C@@H](CC(C)C)C(=O)N[C@H](C(N)=O)C(C)C [Epi-1, epinecidin-1] (H-GFIFHIIKGLFHAGKMIHGLV-NH2)",pathogens killed (time-kill),MRSA [2]; 1,90%
same,pathogens killed (time-kill),MRSA [2]; 2,90%
same,time post i.v. injection up to which Epi-1 is stable in serum,[4]; i.v.,up to 4 h
same,time post-injection up to which Epi-1 was detected in serum,[4]; i.v.,up to 240 min
same,"concentration of free Epi-1 in serum, initial","[5]; 15 min pre-incubation, nominal 100 µg/mL, ethanol precipitation, start, mean ± SEM, three independent experiments",7360 ± 300 ng/mL
same,time up to which the free Epi-1 concentration did not change (after the initial 30 min),[5],up to 7 h
same,time for which Epi-1 was stable in human serum in vitro,[5]; Figure 2C,up to 400 min
same,concentration of free Epi-1 in serum after the initial 30 min,"[5]; nominal 100 µg/mL, ethanol precipitation, 30 min, mean ± SEM, three independent experiments",5940 ± 120 ng/mL
same,BUN,[6]; [7],Died
same,CRE,[6]; [7],Died
same,GOT,[6]; [7],Died
same,GPT,[6]; [7],Died
same,Serum UA,[6]; [7],Died
same,"doses that did not cause abnormal behavior, mortality, or activity","[6]; single i.v. injection, piglets starved 12 h, observed every 2 h up to 24 h",up to 100 mg/kg
same,half-life,in vivo; plasma,~4 h
same,level at 5 h,"in vivo; serum, 0.5 mg/kg",2920 ± 957 ng/mL
same,level at 10 min,"in vivo; serum, 1.5 mg/kg",9061 ± 60 ng/mL
same,level at 5 h,"in vivo; serum, 1.5 mg/kg",3780 ± 219 ng/mL
same,level at 5 h,"in vivo; serum, 2.5 mg/kg",8880 ± 205 ng/mL
